# According to PubChem BioAssay AID248 (DTP/NCI, 2004):
# Values joined by “and” are separate entries in the source; they are usually repeats but may differ in a detail not shown here. Equal values may be shown once. Inconclusive results and toxic doses are left out.
# Test system: L1210 leukemia ip in BDF1 mice, survival T/C
# Assay: NCI In Vivo Anticancer Drug Screen. Data for tumor model L1210 Leukemia (intraperitoneal) in B6D2F1 (BDF1) mice
# Conditions: endpoint: mean survival time, higher = longer survival
# Procedure, shortened: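 Mice bearing the transplanted tumor received compound or vehicle. Survival of the treated group was divided by that of the vehicle-treated control group to give the ratio.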
# [1] = dose: 100.0 mg/kg/injection, schedule: Q04DX002 (ip), vehicle: Klucel (hydroxypropylcellulose) (HPC)
# [2] = dose: 200.0 mg/kg/injection, schedule: Q04DX002 (ip), vehicle: Klucel (hydroxypropylcellulose) (HPC)
# [3] = dose: 400.0 mg/kg/injection, schedule: Q04DX002 (ip), vehicle: Klucel (hydroxypropylcellulose) (HPC)
# [4] = dose: 100.0 mg/kg/injection, schedule: Q04DX002 (ip), vehicle: saline with Tween-80
# [5] = dose: 200.0 mg/kg/injection, schedule: Q04DX002 (ip), vehicle: saline with Tween-80
# [6] = dose: 400.0 mg/kg/injection, schedule: Q04DX002 (ip), vehicle: saline with Tween-80
# [7] = dose: 100.0 mg/kg/injection, schedule: Q01DX001 (ip), vehicle: carboxymethylcellulose (CMC)
# [8] = dose: 200.0 mg/kg/injection, schedule: Q01DX001 (ip), vehicle: carboxymethylcellulose (CMC)
# [9] = dose: 400.0 mg/kg/injection, schedule: Q01DX001 (ip), vehicle: carboxymethylcellulose (CMC)
# [10] = dose: 100.0 mg/kg/injection, schedule: Q01DX009 (ip), vehicle: saline with Tween-80
# [11] = dose: 200.0 mg/kg/injection, schedule: Q01DX009 (ip), vehicle: saline with Tween-80
# [12] = dose: 400.0 mg/kg/injection, schedule: Q01DX009 (ip), vehicle: saline with Tween-80
# [13] = dose: 100.0 mg/kg/injection, schedule: Q01DX009 (ip), vehicle: Klucel (hydroxypropylcellulose) (HPC)
# [14] = dose: 200.0 mg/kg/injection, schedule: Q01DX009 (ip), vehicle: Klucel (hydroxypropylcellulose) (HPC)
# [15] = dose: 100.0 mg/kg/injection, schedule: Q04DX003 (ip), vehicle: Klucel (hydroxypropylcellulose) (HPC)
# [16] = dose: 200.0 mg/kg/injection, schedule: Q04DX003 (ip), vehicle: Klucel (hydroxypropylcellulose) (HPC)
# [17] = dose: 400.0 mg/kg/injection, schedule: Q04DX003 (ip), vehicle: Klucel (hydroxypropylcellulose) (HPC)
# [18] = dose: 100.0 mg/kg/injection, schedule: Q04DX003 (ip), vehicle: saline with Tween-80
# [19] = dose: 200.0 mg/kg/injection, schedule: Q04DX003 (ip), vehicle: saline with Tween-80
# [20] = dose: 400.0 mg/kg/injection, schedule: Q04DX003 (ip), vehicle: saline with Tween-80
# [21] = dose: 100.0 mg/kg/injection, schedule: Q01DX001 (ip), vehicle: saline
# [22] = dose: 200.0 mg/kg/injection, schedule: Q01DX001 (ip), vehicle: saline
# [23] = dose: 50.0 mg/kg/injection, schedule: Q01DX009 (ip), vehicle: saline with Tween-80
smiles,measurement,setting,value
Cc1cc(N(CCCl)CCCl)ccc1C=Nc1ccc2c(c1)ncn2C,T/C,[1],98 % of control
same,T/C,[2],98 % of control
same,T/C,[3],98 % of control
O=C1c2cccc(Cl)c2C(=O)c2c(O)ccc(O)c21,T/C,[4],87 % of control
same,T/C,[5],97 % of control
same,T/C,[6],97 % of control
C(=N\N1CCN(/N=C/c2cccc3ccccc23)CC1)/c1cccc2ccccc12,T/C,[7],93 % of control
same,T/C,[8],90 % of control
same,T/C,[9],88 % of control
CCOc1ccc2c(O)csc2c1,T/C,[10],93 % of control
same,T/C,[11],95 % of control
same,T/C,[12],97 % of control
COc1ccccc1OCC(=O)N1CCCC1,T/C,[1],98 % of control
same,T/C,[2],98 % of control
same,T/C,[3],117 % of control
CCOc1ccccc1NC(=O)c1c(Br)c(Br)c(Br)c(Br)c1C(=O)O,T/C,[13],102 % of control
same,T/C,[14],102 % of control
COC(=O)c1ccc[n+](CCc2ccc(OC)c(OC)c2)c1,T/C,"dose: 75.0 mg/kg/injection, schedule: Q01DX001 (ip), vehicle: saline",111 % of control
O=C(O)CNc1nc(Cl)nc(NCC(=O)O)n1,T/C,"dose: 50.0 mg/kg/injection, schedule: Q01DX009 (ip), vehicle: Klucel (hydroxypropylcellulose) (HPC)",106 % of control
same,T/C,[13],89 % of control
FC(F)(F)c1ccc(Cl)c(NC2=NCCCS2)c1,T/C,"dose: 10.0 mg/kg/injection, schedule: Q01DX009 (ip), vehicle: saline",107 % of control
same,T/C,"dose: 20.0 mg/kg/injection, schedule: Q01DX009 (ip), vehicle: saline",97 % of control
same,T/C,"dose: 40.0 mg/kg/injection, schedule: Q01DX009 (ip), vehicle: saline",96 % of control
same,T/C,"dose: 75.0 mg/kg/injection, schedule: Q01DX009 (ip), vehicle: saline",95 % of control
same,T/C,[13],96 % of control
same,T/C,[15],97 % of control
same,T/C,[14],97 % of control
same,T/C,[16],95 % of control
same,T/C,[17],94 % of control
CSC1=Nc2c(C)nn(C)c2C(c2ccccc2)S1 (stereo unspecified),T/C,[4],100 % of control and 112 % of control
same,T/C,[18],97 % of control and 101 % of control
same,T/C,[5],104 % of control and 89 % of control
same,T/C,[19],96 % of control and 100 % of control
same,T/C,[6],94 % of control and 104 % of control
same,T/C,[20],96 % of control and 100 % of control
CC(=O)c1ccc(Cl)cc1,T/C,[7],91 % of control
same,T/C,[8],91 % of control
same,T/C,[9],97 % of control
CC(=O)Oc1ccc2ncccc2c1Cc1c(OC(C)=O)ccc2ncccc12,T/C,"dose: 75.0 mg/kg/injection, schedule: Q04DX003 (ip), vehicle: saline",91 % of control
same,T/C,"dose: 150.0 mg/kg/injection, schedule: Q04DX003 (ip), vehicle: saline",95 % of control
same,T/C,"dose: 300.0 mg/kg/injection, schedule: Q04DX003 (ip), vehicle: saline",95 % of control
COC(=O)C1=CO[C@H](C)[C@@H]2CN3CCc4c([nH]c5ccccc45)[C@@H]3C[C@H]12,T/C,"dose: 17.5 mg/kg/injection, schedule: Q01DX Z (ip), vehicle: carboxymethylcellulose (CMC)",98 % of control
N#Cc1cn(C2OC(CO)C(O)C2O)c2nc(Cl)nc(N)c12 (stereo unspecified),T/C,"dose: 7.5 mg/kg/injection, schedule: Q01DX005 (ip), vehicle: saline",114 % of control
same,T/C,"dose: 12.5 mg/kg/injection, schedule: Q01DX005 (ip), vehicle: saline",119 % of control
same,T/C,"dose: 12.5 mg/kg/injection, schedule: Q01DX009 (ip), vehicle: saline",117 % of control
same,T/C,"dose: 21.0 mg/kg/injection, schedule: Q01DX005 (ip), vehicle: saline",108 % of control
same,T/C,"dose: 25.0 mg/kg/injection, schedule: Q01DX005 (ip), vehicle: saline",118 % of control
same,T/C,"dose: 25.0 mg/kg/injection, schedule: Q01DX009 (ip), vehicle: saline",98 % of control
CCOC(=O)CNC(=O)OCCSc1ccc(C)cc1,T/C,[10],97 % of control
same,T/C,[11],93 % of control
O=[N+]([O-])c1ccc2c(c1)OCCOCCOCCOCCO2,T/C,[1],95 % of control
same,T/C,[4],93 % of control
same,T/C,[2],103 % of control
same,T/C,[5],104 % of control
same,T/C,[6],87 % of control
Ic1ccc(-n2cccc2)cc1,T/C,"dose: 100.0 mg/kg/injection, schedule: Q01DX001 (ip), vehicle: steriod suspending solution",95 % of control
same,T/C,"dose: 200.0 mg/kg/injection, schedule: Q01DX001 (ip), vehicle: steriod suspending solution",101 % of control
same,T/C,"dose: 400.0 mg/kg/injection, schedule: Q01DX001 (ip), vehicle: steriod suspending solution",92 % of control
CCOC(=O)N1CC2CCC(C1)N2C,T/C,"dose: 12.5 mg/kg/injection, schedule: Q04DX003 (ip), vehicle: saline",103 % of control
same,T/C,"dose: 25.0 mg/kg/injection, schedule: Q04DX003 (ip), vehicle: saline",106 % of control
same,T/C,"dose: 50.0 mg/kg/injection, schedule: Q04DX003 (ip), vehicle: saline",101 % of control
CCOC(=O)N1Cc2cc3cc(OC)c(OC)cc3nc2C1,T/C,[10],109 % of control
same,T/C,[18],106 % of control
same,T/C,[11],94 % of control
same,T/C,[19],97 % of control
same,T/C,[12],108 % of control
same,T/C,[20],96 % of control
CCOC(=O)c1scnc1C,T/C,[13],89 % of control
same,T/C,[15],95 % of control
same,T/C,[14],95 % of control
same,T/C,[16],95 % of control
same,T/C,"dose: 400.0 mg/kg/injection, schedule: Q01DX009 (ip), vehicle: Klucel (hydroxypropylcellulose) (HPC)",92 % of control
same,T/C,[17],95 % of control
c1ccc(N2CCNCC2)cc1 (tested in a mixture with another compound),T/C,"dose: 5.0 mg/kg/injection, schedule: Q01DX001 (ip), vehicle: saline",105 % of control and 101 % of control and 97 % of control
same,T/C,"dose: 10.0 mg/kg/injection, schedule: Q01DX001 (ip), vehicle: saline",105 % of control and 97 % of control
same,T/C,"dose: 20.0 mg/kg/injection, schedule: Q01DX001 (ip), vehicle: saline",105 % of control and 94 % of control and 95 % of control
same,T/C,"dose: 40.0 mg/kg/injection, schedule: Q01DX001 (ip), vehicle: saline",102 % of control and 100 % of control
same,T/C,"dose: 80.0 mg/kg/injection, schedule: Q01DX001 (ip), vehicle: saline",100 % of control
same,T/C,[21],98 % of control
same,T/C,[22],96 % of control
O=C(NNC(=O)Nc1ccc(C2=NCCN2)cc1)Nc1ccc(C2=NCCN2)cc1,T/C,"dose: 8.0 mg/kg/injection, schedule: Q01DX Z (ip), vehicle: carboxymethylcellulose (CMC)",95 % of control
same,T/C,"dose: 16.0 mg/kg/injection, schedule: Q01DX Z (ip), vehicle: carboxymethylcellulose (CMC)",98 % of control
same,T/C,"dose: 32.0 mg/kg/injection, schedule: Q01DX Z (ip), vehicle: carboxymethylcellulose (CMC)",108 % of control
same,T/C,"dose: 64.0 mg/kg/injection, schedule: Q01DX Z (ip), vehicle: carboxymethylcellulose (CMC)",165 % of control
O=C1OC(c2ccccc2)CC12CCCCC2 (stereo unspecified),T/C,[15],102 % of control
same,T/C,[16],100 % of control
same,T/C,[17],100 % of control
O=C(O)c1cccc(C(=O)c2ccc([N+](=O)[O-])cc2)c1,T/C,[21],97 % of control
same,T/C,"dose: 100.0 mg/kg/injection, schedule: Q04DX003 (ip), vehicle: saline",90 % of control
same,T/C,[22],99 % of control
same,T/C,"dose: 200.0 mg/kg/injection, schedule: Q04DX003 (ip), vehicle: saline",102 % of control
same,T/C,"dose: 400.0 mg/kg/injection, schedule: Q01DX001 (ip), vehicle: saline",96 % of control
same,T/C,"dose: 400.0 mg/kg/injection, schedule: Q04DX003 (ip), vehicle: saline",90 % of control
O=S(=O)(c1ccccc1)c1cccs1,T/C,[23],101 % of control
same,T/C,[10],96 % of control
same,T/C,[11],105 % of control
CC1=CC(=O)c2[nH]ncc2C1=O,T/C,"dose: 10.0 mg/kg/injection, schedule: Q01DX001 (ip), vehicle: water",93 % of control
C=Cc1c(C)c(O)cc2c1-c1ccc(O)c(C)c1CC2,T/C,"dose: 6.25 mg/kg/injection, schedule: Q01DX009 (ip), vehicle: saline with Tween-80",102 % of control
same,T/C,"dose: 12.5 mg/kg/injection, schedule: Q01DX009 (ip), vehicle: saline with Tween-80",102 % of control
same,T/C,"dose: 25.0 mg/kg/injection, schedule: Q01DX009 (ip), vehicle: saline with Tween-80",98 % of control
same,T/C,[23],91 % of control
